IC50 data for 16 compounds are collected here from patent US20250186456A1, “PYRIMIDINE-FUSED CYCLIC COMPOUND AND PREPARATION METHOD AND USE THEREOF” (Genfleet Therapeutics (Shanghai) Inc., priority 2021, published 2025).

Where two headings read alike, the source gives them in different places.

Holding throughout (assay type): cell-based, human
The test system of test [1] is p-ERK in AGS cells (KRAS G12D mutation). In words: Cell p-ERK assay (HTRF, Advance ERK phospho-T202/Y204 kit). The conditions noted are these: AGS cells, 3 hours incubation with compound, HTRF, read-out: AGS p-ERK IC50. A digest of the protocol: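 Phospho-ERK (T202/Y204) measured by HTRF in lysates of human gastric AGS cells carrying KRAS G12D, after 3 h compound exposure at 0.1% DMSO over a 3.16-fold series. Percent inhibition relative to DMSO control and lysis-only blank; four-parameter curve fitting gave IC50.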

Test [2] concerns AGS cells (KRAS G12D). As to the kind of experiment: Cell proliferation inhibition assay, 3D, CellTiter-Glo 3D, AGS. As to conditions: AGS 3D sphere model, 5 days incubation. In outline: (§1)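 Spheroids (800 AsPC-1 or 400 AGS cells/well; RPMI-1640 or F-12K with 10% FBS) formed overnight, then were dosed on day 2 with a 3.16-fold series at 0.1% DMSO. After 5 days, viability was read by CellTiter-Glo 3D luminescence, and IC50 came from four-parameter fits of inhibition versus DMSO control and medium blank.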
Background: In ATP-based viability assays light output follows the ATP content of the culture.

Test [3] relates to AsPC-1 cells (KRAS G12D mutation). As to the kind of experiment: Cell proliferation inhibition assay, 3D, CellTiter-Glo 3D, AsPC-1. The conditions noted are these: AsPC-1 3D sphere model, 5 days incubation. A digest of the protocol:
as §1

A word on the IC50: it is the concentration at which inhibition is half-maximal. As to `C#Cc1cccc2cc(N)cc(-c3nc4c5c(nc(OCC6(CN7CC[C@@H](F)C7)CC6)nc5c3F)N3C[C@H]5CC[C@H](N5)[C@H]3[C@H](C)O4)c12` [Example Z710, 5-Ethynyl-4-((5S,5aS,6S,9R)-1-Fluoro-12-((1-(((R)-3-Fluoropyrrolidin-1-Yl)Methyl)Cyclopropyl)Methoxy)-5-Methyl-5a,6,7,8,9,10-Hexahydro-5H-4-Oxa-3,10a,11,13,14-Pentaaza-6,9-Methanonaphtho[1,8-Ab]Heptalen-2-Yl) Naphthalen-2-Amine], the IC50 was determined as 0.34 nM in test [1] (Homo sapiens); 4.26 nM in test [2] (Homo sapiens, 120 h); 3.72 nM in test [3] (Homo sapiens, ASPC1, 120 h).

On to `CCc1cccc2c(F)c(N)cc(-c3nc4c5c(nc(OCC67CCCN6CC(F)(F)C7)nc5c3F)N3C[C@H]5CC[C@H](N5)[C@H]3[C@H](C)O4)c12` (stereo partly drawn) [Example Z729, 4-((5S,5aS,6S,9R)-12-((2,2-difluorotetrahydro-1H-pyrrolizin-7a (5H)-yl)methoxy)-1-fluoro-5-methyl-5a,6,7,8,9,10-hexahydro-5H-4-oxa-3,10a, 11, 13, 14-pentaaza-6,9-methanonaphtho[1,8-ab]heptalene-2-yl)-5-ethyl-1-fluoronaphthalen-2-amine], for which the IC50 in test [1] (Homo sapiens) stood at 212 nM; in test [2] (Homo sapiens, 120 h), 584 nM; in test [3] (Homo sapiens, ASPC1, 120 h) it was 757 nM.

Take `C#Cc1c(F)ccc2cccc(-c3nc4c5c(nc(OCC67CC(=C)CN6CCC7CO)nc5c3F)N3C[C@H]5CC[C@H](N5)[C@H]3[C@H](C)O4)c12` (stereo partly drawn) [Example Z683, (7a-((((5S,5aS,6S,9R)-2-(8-ethynyl-7-fluoronaphthalen-1-yl)-1-fluoro-5-methyl-5a,6,7,8,9,10-hexahydro-5H-4-oxa-3,10a,11,13,14-pentaaza-6,9-methanonaphtho[1,8-ab]heptalen-12-yl)oxy)methyl)-6-methylenehexahydro-1H-pyrrolizin-1-yl)methanol]: the IC50 in test [1] (Homo sapiens) was found to be 5.84 nM; in test [2] (Homo sapiens, 120 h), 22.7 nM; in test [3] (Homo sapiens, ASPC1, 120 h) it was 79 nM.

For `C#Cc1c(F)ccc2cc(O)cc(-c3nc4c5c(nc(OC[C@@]67CCCN6C[C@H](F)C7)nc5c3F)N3C[C@H]5CC[C@H](N5)[C@H]3[C@H](C)O4)c12` [Example Z552, 5-ethynyl-6-fluoro-4-((5S,5aS,6S,9R)-1-fluoro-12-(((2R,7aS)-2-fluorotetrahydro-1H-pyrrolizin-7a (5H)-yl)methoxy)-5-methyl-5a,6,7,8,9,10-hexahydro-5H-4-oxa-3,10a,11,13,14-pentaaza-6,9-methanonaphtho[1,8-ab]heptalen-2-yl) naphthalen-2-ol], the IC50 was 0.67 nM in test [1] (Homo sapiens); 0.53 nM in test [2] (Homo sapiens, 120 h); 5.77 nM in test [3] (Homo sapiens, ASPC1, 120 h).

For the compound `C#Cc1c(F)ccc2cccc(-c3nc4c5c(nc(OC[C@@]67C[C@@H](F)CN6CCC7=C)nc5c3F)N3C[C@H]5CC[C@H](N5)[C@H]3[C@H](C)O4)c12` (single isomer, unassigned) [Example Z690], the IC50 was found to be 16.7 nM in test [1] (Homo sapiens); 31.5 nM in test [2] (Homo sapiens, 120 h); 45.9 nM in test [3] (Homo sapiens, ASPC1, 120 h).

With `C#Cc1c(F)ccc2cccc(-c3nc4c5c(nc(OCC6(CN7CCC(O)C7)CC6)nc5c3F)N3C[C@H]5CC[C@H](N5)[C@H]3[C@H](C)O4)c12` (stereo partly drawn) [Example Z721], the results for the IC50 in test [1], in test [2] and in test [3] were 37.5 nM, 43.6 nM and 105 nM, respectively.

Turning to `C#Cc1c(F)ccc2cccc(-c3nc4c5c(nc(OCC67CC(=C)CN6[C@H]6C[C@H]6C7)nc5c3F)N3C[C@H]5CC[C@H](N5)[C@H]3[C@H](C)O4)c12` (stereo partly drawn) [Example Z604, (5S,5aS,6S,9R)-2-(8-ethynyl-7-fluoronaphthalen-1-yl)-1-fluoro-5-methyl-12-(((1aS,6aS)-4-methylenehexahydrocyclopropa[b]pyrrolizin-5a (3H)-yl)methoxy)-5a,6,7,8,9,10-hexahydro-5H-4-oxa-3,10a, 11, 13,14-pentaaza-6,9-methanonaphtho[1,8-ab]heptalene], the IC50 stood at 95 nM in test [1] (Homo sapiens); 573 nM in test [2] (Homo sapiens, 120 h); 468 nM in test [3] (Homo sapiens, ASPC1, 120 h).

In the case of `C#Cc1c(F)ccc2cccc(-c3nc4c5c(nc(OCC67CC8CC8N6CCC7=C)nc5c3F)N3C[C@H]5CC[C@H](N5)[C@H]3[C@H](C)O4)c12` (stereo partly drawn) [Example Z635, (5S,5aS,6S,9R)-2-(8-ethynyl-7-fluoronaphthalen-1-yl)-1-fluoro-5-methyl-12-((5-methylenehexahydrocyclopropa[b]pyrrolizin-5a (3H)-yl)methoxy)-5a,6,7,8,9,10-hexahydro-5H-4-oxa-3,10a, 11,13,14-pentaaza-6,9-methanonaphtho[1,8-ab]heptalene], the IC50 in test [1] (Homo sapiens) stood at 50 nM; in test [2] (Homo sapiens, 120 h) it was 224 nM; in test [3] (Homo sapiens, ASPC1, 120 h), 218 nM.

As for `C#Cc1c(F)ccc2cccc(-c3nc4c5c(nc(OCC67CC(=C)CN6[C@@H]6C[C@@H]6C7)nc5c3F)N3C[C@H]5CC[C@H](N5)[C@H]3[C@H](C)O4)c12` (stereo partly drawn) [Example Z603, (5S,5aS,6S,9R)-2-(8-Ethynyl-7-Fluoronaphthalen-1-Yl)-1-Fluoro-5-Methyl-12-(((1aR,6aR)-4-Methylenehexahydrocyclopropa[b]Pyrrolizin-5a (3H)-Yl)Methoxy)-5a,6,7,8,9,10-Hexahydro-5H-4-Oxa-3,10a,11,13,14-Pentaaza-6,9-Methanonaphtho[1,8-Ab]Heptalene], the IC50 worked out at 64.1 nM in test [1] (Homo sapiens); 110 nM in test [2] (Homo sapiens, 120 h); 217 nM in test [3] (Homo sapiens, ASPC1, 120 h).

On to `C#Cc1c(F)ccc2cccc(-c3nc4c5c(nc(OC[C@@]67CCCN6CCC7=C)nc5c3F)N3C[C@H]5CC[C@H](N5)[C@H]3[C@H](C)O4)c12` [Example Z639, (5S,5aS,6S,9R)-2-(8-ethynyl-7-fluoronaphthalen-1-yl)-1-fluoro-5-methyl-12-(((S)-1-methylenetetrahydro-1H-pyrrolizin-7a (5H)-yl)methoxy)-5a,6,7,8,9,10-hexahydro-5H-4-oxa-3,10a, 11, 13,14-pentaaza-6,9-methanonaphtho[1,8-ab]heptalene], for which the IC50 in test [1] (Homo sapiens) turned out to be 33.4 nM; in test [2] (Homo sapiens, 120 h), 113 nM; in test [3] (Homo sapiens, ASPC1, 120 h) it was 93.7 nM.

On to `C#Cc1c(F)ccc2cc(O)cc(-c3nc4c5c(nc(OCC67CC(=C)CN6CC(=C)C7)nc5c3F)N3C[C@H]5CC[C@H](N5)[C@H]3CCO4)c12` [Example Z598], for which the IC50 in test [1] (Homo sapiens) amounted to 0.68 nM; in test [2] (Homo sapiens, 120 h), 1.23 nM; in test [3] (Homo sapiens, ASPC1, 120 h), 5.55 nM.

`C#Cc1cccc2cc(N)cc(-c3nc4c5c(nc(OCC6(CN7CCC(F)(F)C7)CC6)nc5c3F)N3C[C@H]5CC[C@H](N5)[C@H]3[C@H](C)O4)c12` [Example Z712, 4-((5S,5aS,6S,9R)-12-((1-((3,3-difluoropyrrolidin-1-yl)methyl)cyclopropyl)methoxy)-1-fluoro-5-methyl-5a,6,7,8,9,10-hexahydro-5H-4-oxa-3,10a, 11, 13, 14-pentaaza-6,9-methanonaphtho[1,8-ab]heptalen-2-yl)-5-ethynylnaphthalen-2-amine]: the IC50 in test [1] (Homo sapiens) was determined as 28.2 nM; in test [2] (Homo sapiens, 120 h) it was 60.7 nM; in test [3] (Homo sapiens, ASPC1, 120 h), 30.4 nM.

Consider `C#Cc1c(F)ccc2cccc(-c3nc4c5c(nc(OCC67CC8(CC8)CN6CC6(CC6)C7)nc5c3F)N3C[C@H]5CC[C@H](N5)[C@H]3[C@H](C)O4)c12` [Example Z628], for which the IC50 in test [1] (Homo sapiens) was 45.5 nM; in test [2] (Homo sapiens, 120 h), 40 nM; in test [3] (Homo sapiens, ASPC1, 120 h), 144 nM.

For the compound `C#Cc1c(F)ccc2cc(O)cc(-c3nc4c5c(nc(OCC67CCCN6CC(F)(F)C7)nc5c3F)N3C[C@H]5CC[C@H](N5)[C@H]3[C@H](C)O4)c12` (stereo partly drawn) [Example Z723, 4-((5S,5aS,6S,9R)-12-((2,2-difluorotetrahydro-1H-pyrrolizin-7a (5H)-yl)methoxy)-1-fluoro-5-methyl-5a,6,7,8,9,10-hexahydro-5H-4-oxa-3,10a, 11,13,14-pentaaza-6,9-methanonaphtho[1,8-ab]heptalene-2-yl)-5-ethynyl-6-fluoronaphthalen-2-ol], the IC50 amounted to 6.96 nM in test [1] (Homo sapiens); 15.1 nM in test [2] (Homo sapiens, 120 h); 55.4 nM in test [3] (Homo sapiens, ASPC1, 120 h).

On to `C#Cc1cccc2c(F)c(N)cc(-c3nc4c5c(nc(OCC6(CN7CCOCC7)CC6)nc5c3F)N3C[C@H]5CC[C@H](N5)[C@H]3[C@H](C)O4)c12` [Example Z715, 5-ethynyl-1-fluoro-4-((5S,5aS,6S,9R)-1-fluoro-5-methyl-12-((1-(morpholinomethyl)cyclopropyl)methoxy)-5a,6,7,8,9,10-hexahydro-5H-4-oxa-3,10a, 11,13, 14-pentaaza-6,9-methanonaphtho[1,8-ab]heptalen-2-yl) naphthalen-2-amine], for which the IC50 was 1.94 nM in test [1] (Homo sapiens); 3.44 nM in test [2] (Homo sapiens, 120 h); 3.83 nM in test [3] (Homo sapiens, ASPC1, 120 h).

Take `C#Cc1c(F)ccc2cccc(-c3nc4c5c(nc(OCC67CC(=C)CN6C[C@H](F)C7)nc5c3F)N3CC5CCC(N5)C3C(CF)O4)c12` (stereo partly drawn) [Example Z679, 2-(8-Ethynyl-7-Fluoronaphthalen-1-Yl)-1-Fluoro-12-(((2R)-2-Fluoro-6-Methylenetetrahydro-1H-Pyrrolizin-7a (5H)-Yl)Methoxy)-5-(Fluoromethyl)-5a,6,7,8,9,10-Hexahydro-5H-4-Oxa-3.10a,11,13,14-Pentaaza-6,9-Methanonaphtho[1,8-Ab]Heptalene]: the figures for the IC50 in test [1], in test [2] and in test [3] were 117 nM, 393 nM and 352 nM, respectively.
